Experimental data reported in patent US20160031958A1, “METHODS AND COMPOSITIONS USEFUL IN MANIPULATING THE STABILITY OF RE1 SILENCING TRANSCRIPTION FACTOR” (OREGON HEALTH & SCIENCE UNIVERSITY, priority 2014, published 2016).
Blank lines part the entries; values can stand above or below the molecule they belong to. Where a SMILES comes first, the peptide text is derived from it. The star is where a group is joined. Cbz = O=C(OCc1ccccc1)*

Legend:
MEK [1] = assay: Native gel / in-gel GFP fluorescence of REST (810-910)-GFP reporter peptide phosphorylation in HEK293T cells; assay type: cell-based, Human
Description: To interrogate this serine residue, HEK293T cells were transfected with the REST (810-910)-GFP peptide with alanine mutations at S856, S861, and/or S864 as indicated. (S856/864A is S856A/S864A with S861 unmutated; S856/861A is S856A/S861A with S864 unmutated; S861/864A is S861A/S864A with S856 unmutated). […]
Gels were treated the same as in FIG. 5C.
To monitor phosphorylation status of specific REST sites under different circumstances, a cDNA reporter construct that expresses a peptide encoding amino acids 810-to-910 of REST (FIG. 3A) was constructed. Mutant REST (810-910) cDNAs encoding alanine mutations at S861, S864 and at an adjacent site, S856 were also constructed. S856 was minimally phosphorylated in the mass spectrometric analysis described above. […] The constructs also comprise regions that encode N-terminal FLAG and C-terminal eGFP tags (FIG. 3A). These constructs were transfected into HEK cells and expressed. Extracts from the cells were resolved on native gels 24 hours after transfection. The expressed peptides were detected by in-gel GFP fluorescence.
The phosphorylation state of the expressed REST peptides can be visualized by differential migration in native gels due to charge differences. The unmutated S861/S864 REST 810-910 peptide (FIG. 3B, lane 1) migrated predominantly as two distinct bands that were not present upon treatment with lambda phosphatase (FIG. 3B, lane 7). […] The identification of the doubly phosphorylated species was based upon the mobility of an unmutated peptide containing unmutated S861/864 (FIG. 3B, lane 2, S856A), which was not present in samples expressing peptides containing S861A or S864A single mutations (lanes 3 and 4, respectively).
Detection of in gel fluorescence on native 10.5%-14% acrylamide gels (Bio-Rad Cat #345-9949) was performed using the Typhoon imaging system by GE Healthcare Life Science.

Pin1 [2] = biological target: T1, Pin1 (Rattus norvegicus, UniProt A0ABK0LFD7); assay: Western blot of FLAG-REST protein levels in PC12 tet-on FLAG-REST cells treated with Pin1 inhibitor; assay type: cell-based; conditions: PC12 tet-on FLAG-REST cells induced 24 h with doxycycline, PiB or vehicle for 7.5 h
T1 construct: endogenous in cells; host or cells: PC12 tet-on FLAG-REST cells
T1 sequence (A0ABK0LFD7 1-162): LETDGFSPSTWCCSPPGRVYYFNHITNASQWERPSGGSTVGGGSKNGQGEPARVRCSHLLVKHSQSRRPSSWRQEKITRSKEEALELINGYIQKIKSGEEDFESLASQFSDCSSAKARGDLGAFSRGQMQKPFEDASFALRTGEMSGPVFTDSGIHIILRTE
Description: PC12 tet-on FLAG-REST cells were induced 24 h with doxycycline, treated with PiB or vehicle for 7.5 h, and then extracted for analysis. Blots were probed with anti-FLAG (REST) and α-tubulin (loading control).
(§1) HEK293T cells were transfected using Lipofectamine 2000 (Life Technologies) following the manufacturer's instructions. PC12 tet, PC12 tet-on FLAG-REST, and HEK293T cell lines were maintained as described in Ballas N et al 2001 supra. Neurospheres were isolated from E12.5 mouse cortices and cultured as described in Reynolds B A and Weiss S, Science 255, 1707-1710 (1992); incorporated by reference herein in neurobasal media supplemented with 2 mM L-glutamine, 100 U/mL penicillin, […] streptomycin, B27 supplement, 20 ng/mL EGF, and 10 ng/mL FGF-2, all from Life Technologies. Neurospheres were passaged every 3-4 days using Accutase® (Sigma). […]
(§2) Whole cell lysates were prepared and immunoprecipitated following the procedures in Ballas N et al, 2001 supra and Nesti E et al, Mol Biol Cell 15, 4073-4088 (2004); incorporated by reference herein. Western blots were performed by standard procedures using antibodies described below and analyzed using anti IgG conjugated to infrared dyes (ThermoFisher) on an Odyssey® infrared fluorescence imager (LiCor). […] Infrared fluorescence was detected on the Odyssey® imager (LiCor) in the 700 nm channel. […]

Pin1 [3] = biological target: T2, Pin1 (Homo sapiens, UniProt Q13526); assay: Co-immunoprecipitation of GST-βTrCP with FLAG-REST in HEK293T cells after Pin1 inhibition; assay type: cell-based; conditions: FLAG-REST and GST-βTrCP 48 h, PiB 7.5 h and MG132 4 h
T2 construct: endogenous in cells; host or cells: HEK293T
T2 sequence (Q13526 whole entry): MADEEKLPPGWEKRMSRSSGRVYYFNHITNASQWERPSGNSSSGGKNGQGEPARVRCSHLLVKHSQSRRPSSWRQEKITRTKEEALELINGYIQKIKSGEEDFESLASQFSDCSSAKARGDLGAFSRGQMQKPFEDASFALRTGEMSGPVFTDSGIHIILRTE
Description: HEK293T cells were transfected with FLAG-REST (unmutated or S861A/S864A) and GST-βTrCP for 48 h prior to treatment with PiB for 7.5 h and MG132 for 4 h, and then immunoprecipitated. Western blots were probed with anti-FLAG or anti-GST.
as §1, §2

MEK [4] = assay: Western blot of FLAG-REST protein levels in transfected HEK cells after MEK/ERK inhibitor; assay type: cell-based, Human; conditions: HEK cells transfected with FLAG-REST cDNA, PD184352 or vehicle for 30 min
Description: To provide further support for this, unmutated REST (810-910) reporter cDNA was transfected into HEK cells and the peptide expressed in the presence and absence of the MEK/ERK inhibitor PD184352. Treatment with PD184352 caused a modest loss from the band at the position representing unmutated S861/S864 peptide and a reciprocal modest increase in the species representing unphosphorylated peptide (FIG. 5C). […] Accordingly, HEK cells transfected with FLAG-REST cDNA were treated with PD184352 for 30 min and the extracts were analyzed by Western blot.
as §2, with “(LiCor). For detecting phosphorylated REST at S861/S864, cell extracts were prepared lacking phosphatase inhibitors. For phosphatase treatment, 75 μg of total protein was treated with 600 U lambda phosphatase (New England Biolabs) or with buffer alone at 30° C. for 1 h, according to the manufacturer's protocol.” for “(LiCor).”

endogenous REST protein [5] = assay: Western blot of endogenous REST protein levels in transfected E12.5 neurospheres; assay type: cell-based; conditions: E12.5 mouse cortical neurospheres after transfection; MG132 4 h; compared to control peptides
Description: FIG. 7B is an image of a Western blot showing endogenous REST protein levels in E12.5 neurospheres after transfection. Lane 1, empty vector; lane 2, control (595-694) peptide; lane 3, REST(810-910) S861/864A peptide; lane 4, REST(810-910) WT peptide; lane 5, empty vector with MG132 treated for 4 h. The blot was probed with anti-mouse-REST antibody and anti-tubulin (loading control) antibodies.
There is a significant difference between REST (810-910) compared to control (595-694) peptide (n=5, p=0.0021) and REST(810-910) compared to S861/864A REST(810-910) (n=5, p=0.046). The difference between MG132 and REST(810-910) is not significant (n=5, p=0.7996, Sidak's multiple comparison test, error bars represent 95% confidence interval).
The Examples above used the REST (810-910) reporter as a surrogate substrate for signaling molecules that target S861/S864 on full-length REST. […]
as §2

endogenous REST protein [6] = assay: Western blot of endogenous REST protein after transfection of CTDSP1 cDNA into HEK293T cells; assay type: cell-based, Human; conditions: HEK293T cells transfected with CTDSP1 cDNA
Description: FIG. 6D is an image of a Western blot analysis showing stabilized endogenous REST protein after transfection of CTDSP1 cDNA into HEK293T cells. α-tubulin is the loading control.
Using a REST phospho-specific polyclonal antibody, it was shown that exogenously expressed FLAG-CTDSP1 dephosphorylated these sites in full-length REST (FIG. 6B). Dephosphorylation by CTDSP1 was also observed in the REST reporter peptides as detected by in-gel fluorescence (FIG. 6C).
as §2, with “(LiCor). For detecting phosphorylated REST at S861/S864, cell extracts were prepared lacking phosphatase inhibitors. For phosphatase treatment, 75 μg of total protein was treated with 600 U lambda phosphatase (New England Biolabs) or with buffer alone at 30° C. for 1 h, according to the manufacturer's protocol.” for “(LiCor).”

Molecule: EGF: recombinant EGF, upstream activator of ERK
Phosphorylation of S864 in REST (810-910)-GFP peptide (mobility shift) (MEK [1]; HEK293T, recombinant EGF or vehicle 10 min): induces phosphorylation of S864

REST protein levels (anti-FLAG Western blot) (Pin1 [2]): higher REST protein levels | βTrCP binding to REST (co-immunoprecipitation) (Pin1 [3]): diminished βTrCP binding to REST
Molecule: CCOC(=O)CN1C(=O)c2ccc3c4c(ccc(c24)C1=O)C(=O)N(CC(=O)OCC)C3=O [PiB]

Molecule: O=C(NOCC1CC1)c1ccc(F)c(F)c1Nc1ccc(I)cc1Cl [PD184352]
EGF-induced phosphorylation of S864 in REST (810-910)-GFP peptide (MEK [1]; HEK293T, PD184352 for 20 min, then recombinant EGF 10 min): inhibited | Bands of doubly phosphorylated and non-phosphorylated REST (810-910) peptide (MEK [1]; REST (810-910) and GFP cDNA co-transfected into HEK cells, presence and absence of PD184352 (FIG. 10)): loss of band representing the doubly phosphorylated peptide | S861/S864 phosphorylation in WT REST peptide (MEK [1]; transfected HEK293T cells, 10 mM PD184352 for 4 hours): partial loss of S861/S864 phosphorylation | FLAG-REST protein levels (Western blot) (MEK [4]): increased FLAG-REST protein levels

Molecule: CC(C)C[C@@H](C=O)NC(=O)[C@H](CC(C)C)NC(=O)[C@H](CC(C)C)NC(=O)OCc1ccccc1 [MG132] (Cbz-Leu-Leu-Leu-aldehyde)
Endogenous full-length REST protein levels (endogenous REST protein [5]): did not stabilize the Rest protein further | REST stabilization by CTDSP1, further effect of MG132 (endogenous REST protein [6]): not increased further
